Patent US20260083126A1, “ANTIMICROBIAL COMPOSITIONS” (AHV International B.V., priority 2022, published 2026)
Values after ≈ are worked out from the molar mass of the structure shown. Where two headings read alike, the source gives them in different places.

Tests used:
[1] = tested on: Micrococcus luteus ATCC 4698; assay: MIC assay; assay type: cell-based; conditions: Example 2a, n = 3, ATCC 4698; for MIC50 / MIC90: Micrococcus luteus, ATCC4698
Experimental: (§1) The exact weighed amount was noted and the volume of solvent to reach a 80 mM dilution calculated. Half of the volume was added first, by adding Tween 80 and let stand for 5 minutes. In a second step, the other half of the volume DMSO was added and resuspended to help the dilution process. The closed tube was inverted 5-10 times and then vortexed very thoroughly for at least 30 seconds. If after this procedure crystals were still visible, the tube was placed in a shaker at 37° C. at 150 rpm for at least 30 minutes (it is indicated if the dissolution period was longer than 2 h). […] In case of Bis(4-Chlorophenyl) thiosulfonate, a lower concentrated stock solution of 2 mM needed to be prepared. For that, the required amount of compound was weighed in and 2% v/v Tween80 and 2% v/v DMSO of the end volume of the stock solution was added to the substance. This mix was heated in a water bath set to 40° C. and occasionally shaken. When the whole amount of the substance reached dissolution, the volume was filled up with growth medium until the end volume. This 2 mM stock solution of Bis(4-Chlorophenyl) thiosulfonate was used in the MIC plate and diluted two-fold, resulting in a testing range of Bis(4-Chlorophenyl) thiosulfonate from 1 mM to 0.002 mM.
(§2) The microorganisms as indicated in Table 4 were used to inoculate a tryptic soy agar (TSA) plate and incubated overnight at 37° C. After incubation 3-5 well-isolated colonies with the same morphology were selected from the TSA plate and resuspended in 2 mL 0.9% saline solution with 3-6 glass beads and vortexed. The optical density at 600 nm (OD600) of the bacterial suspension was measured with a spectrophotometer (Evolution™ 201/220 UV-Visible Spectrophotometer, Thermo Fisher Scientific) and diluted to an OD600 of 0.0008, which resembles 10^6 CFU/mL.
(§3) The MIC assay was performed in a flat-bottom 96-microtiter plate. 50 μL of MHB-II was added into columns 2-11, and 100 μL to column 12 for sterility control. 100 μL of the 8 mM test compound solution (method 1) was added to column 1. A two-fold dilution series of the solution in MHB-II was achieved by resuspending 50 μL of the 8 mM solution from column 1 to column 2. This step was repeated until column 10. The respective concentration of Tween 80 and DMSO in column 1 was 2.5%, which is two-fold diluted throughout the plate. 50 μL of the bacterial suspension was added to column 1-11. The microtiter plates were sealed with adhesive polyethylene film for sealing microplates (Diversified Biotech) and incubated for 24 h at 37° C. After incubation the OD was measured at 600 nm with the Varioskan (Thermo Fisher Scientific). The minimal concentration which causes reduction of final OD600 of the bacterial culture by 50% (MIC50) and by 90% (MIC90) was calculated after normalization of the obtained OD values to the growth control in column 11. This assay was repeated three times in three independent experiments.

[2] = tested on: Lactococcus garvie Isolate 2; assay: MIC assay; assay type: cell-based, Lactococcus garvieae; conditions: for MIC50 / MIC90: Lactococcus
Experimental: as §1, §2, §3
(§4) Hereafter, the stock solutions of the compounds were used in three repetitions in a minimal inhibitory concentration (MIC) assay at a 2-fold dilution range with various bacteria from the gram-positive and gram-negative group and a yeast, Candida albicans. The concentrations that show only less than 10% growth after 24 h were considered the MIC90-values, whereas the concentrations that show 50% growth after 24 h when compared to the bacterial growth control were considered the MIC50-values. Escherichia coli and Staphylococcus aureus were used as representatives for a gram-negative bacteria and gram-positive bacteria, respectively. Furthermore, the yeast C. albicans was also tested.
In an Eppendorf tube between 10-20 mg of the test compound was weighed. Hereafter, the required amount of Tween 80 was added, followed by the amount DMSO. After vigorous shaking, the dissolved and transparent dilutions were diluted 10 times with Mueller Hinton Broth (MHB) for the MIC assay. […]

[3] = tested on: Pseudomonas aeruginosa ATCC 27853 biofilm; assay: MBIC assay (crystal violet); assay type: cell-based; conditions: 48 h at 37° C., absorbance 540 nm
Experimental: as §1
Frozen aliquots of Staphylococcus epidermis ATCC 35984 and Pseudomonas aeruginosa ATCC 27853 were used to inoculate a tryptic soy agar (TSA) plate and were incubated overnight at 37° C. After incubation 3-5 well-isolated colonies with the same morphology were selected from the TSA plate and resuspended in 2 ml 0.9% saline solution with 3-6 glass beads and vortexed. The optical density of the bacterial suspension was measured at 600 nm (OD600) with a spectrophotometer (Evolution™ 201/220 UV-Visible Spectrophotometer, Thermo Fisher Scientific) and diluted to an OD600 of 0.2. The MBIC assay was performed in a 96-microtiter plate. […] The solution was resuspended and transferred to a flat-bottom 96-well plate and the absorbance measured at 540 nm with the spectrophotometer. […]

[4] = tested on: Staphylococcus aureus LUH 14616; assay: MBC assay (Minimal Bactericide Concentration); assay type: cell-based; conditions: for MBC Staphylococcus aureus: LUH 14616, n = 3, no colonies on agar plate after 20 h; for effect at concentrations of growth inhibition (MIC90), S. aureus: higher MBC values compared to MIC90 values
Experimental: as §4
(§5) The Minimal Bactericide Concentration (MBC) of two compounds were determined, namely diisopropyl thiosulfonate and di-n-propyl thiosulfonate. […] This assay was performed per strain of E. coli, S. aureus, and C. albicans three independent times. Therefore, the standard deviation could also be calculated (Table 10).

[5] = tested on: Escherichia coli ATCC 25922; assay: MBC assay (Minimal Bactericide Concentration); assay type: cell-based; conditions: for MBC Escherichia coli: ATCC 25922, n = 3, no colonies on agar plate after 20 h; for effect at concentrations of growth inhibition (MIC90), E. coli: MBC compared to MIC90
Experimental: as §4, §5

Candida albicans Y01-19 = assay: MBC assay (Minimal Bactericide Concentration); assay type: cell-based; conditions: for effect at concentrations of growth inhibition (MIC90), C. albicans: MBC compared to MIC90; for MBC Candida albicans: Y01-19, n = 3, no colonies on agar plate after 20 h
Experimental: as §4, §5

[6] = Example 2a, n = 3, Isolate 2, read-out: MIC90 Lactococcus garvie (+)
[7] = Example 2b, FIG. 1, no MIC90 detected in the tested range, read-out: Average MIC90 L. garvieae (Lg)
[8] = listed as diisopropyl thiosulfonate Batch A
[9] = listed as diisopropyl thiosulfonate Batch C

Clc1ccc(SSc2ccc(Cl)cc2)cc1 [Bis (4-chlorophenyl) disulfide, Bis(4-chlorophenyl) disulfide]
MIC50 [1]: 50 µM (≈ 14.4 µg/mL) | MIC90 [1]: 250 µM (≈ 71.8 µg/mL) | MIC50 ([2]; Example 2a, n = 3, Isolate 2): 1350 µM (≈ 388 µg/mL) | MIC90 [2, 6]: > 4000 µM | MIC90 [2, 7]: > 1000 µM | P. aeruginosa MBIC90 [3]: >4 mM

O=S(=O)(Sc1ccc(Cl)cc1)c1ccc(Cl)cc1 [Bis (4-chlorophenyl) thiosulfonate, Bis(4-chlorophenyl) thiosulfonate]
MIC50 Micrococcus luteus (+) [1]: 210 µM | MIC90 Micrococcus luteus (+) [1]: 750 µM | MIC50 Lactococcus garvie (+) ([2]; Example 2a, n = 3, Isolate 2): 90 µM | MIC90 Lactococcus garvie (+) ([2]; Example 2a, n = 3, Isolate 2): 500 µM

Fc1ccc(SSc2ccc(F)cc2)cc1 [Bis (4-fluorophenyl) disulfide, Bis(4-fluorophenyl) disulfide]
MIC50 [1]: 750 µM (≈ 191 µg/mL) | MIC90 [1]: 2000 µM (≈ 509 µg/mL) | MIC50 ([2]; Example 2a, n = 3, Isolate 2): 250 µM (≈ 63.6 µg/mL) | MIC90 [2, 6]: > 4000 µM | MIC90 [2, 7]: > 4000 µM

[O-][S+](Sc1ccc(F)cc1)c1ccc(F)cc1 (stereo not drawn) [Bis (4-fluorophenyl) thiosulfinate, Bis(4-fluorophenyl) thiosulfinate]
MIC50 Micrococcus luteus (+) [1]: 2000 µM (≈ 541 µg/mL) | MIC90 Micrococcus luteus (+) [1]: 3330 µM (≈ 900 µg/mL) | MIC50 Lactococcus garvie (+) ([2]; Example 2a, n = 3, Isolate 2): 130 µM (≈ 35.1 µg/mL) | MIC90 Lactococcus garvie (+) ([2]; Example 2a, n = 3, Isolate 2): 830 µM (≈ 224 µg/mL)

O=S(=O)(Sc1ccc(F)cc1)c1ccc(F)cc1 [Bis (4-fluorophenyl) thiosulfonate, Bis(4-fluorophenyl) thiosulfonate]
MIC50 Micrococcus luteus (+) [1]: 1500 µM | MIC90 Micrococcus luteus (+) [1]: 2000 µM | MIC50 Lactococcus garvie (+) ([2]; Example 2a, n = 3, Isolate 2): 220 µM | MIC90 Lactococcus garvie (+) ([2]; Example 2a, n = 3, Isolate 2): 830 µM

CC(C)SS(=O)(=O)C(C)C [Di-isopropyl thiosulfonate]
MBC Staphylococcus aureus [4, 8]: 1500 µM | MBC Staphylococcus aureus [4, 9]: 1833 µM | effect at concentrations of growth inhibition (MIC90), S. aureus [4]: bacteriostatic effect | MBC Escherichia coli [5]: 219 µM | effect at concentrations of growth inhibition (MIC90), E. coli [5]: bactericidal effect | effect at concentrations of growth inhibition (MIC90), C. albicans (Candida albicans Y01-19): bactericidal effect | MBC Candida albicans (Candida albicans Y01-19; [8]): 75 µM | MBC Candida albicans (Candida albicans Y01-19; [9]): 50 µM

CCCSSCCC [Di-n-propyl disulfide, reference compound]
P. aeruginosa MBIC90 [3]: >4 mM

CCCSS(=O)(=O)CCC [Di-n-propyl thiosulfonate, reference compound]
MBC Staphylococcus aureus [4]: 1083 µM | effect at concentrations of growth inhibition (MIC90), S. aureus [4]: bacteriostatic effect | MBC Escherichia coli [5]: 208 µM | effect at concentrations of growth inhibition (MIC90), E. coli [5]: bactericidal effect | effect at concentrations of growth inhibition (MIC90), C. albicans (Candida albicans Y01-19): bactericidal effect | MBC Candida albicans (Candida albicans Y01-19): 25 µM | P. aeruginosa MBIC90 [3]: 0.5 mM
